Publication PMC6934184, “Selective DNA-PKcs inhibition extends the therapeutic index of localized radiotherapy and chemotherapy” (The Journal of Clinical Investigation, 2019)

Target: T1, CDK16 (PCTK1)/cyclin Y (Homo sapiens, UniProt Q00536)
T1 construct: purchased Thermo Fisher Scientific (Life Technologies) SelectScreen
Test: SelectScreen LanthaScreen
Format: binding
Details: read-out: % displacement
Summary of the method: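 Percent values come from Thermo SelectScreen profiling of NU5455, combining activity and binding assays. CSF1R was run in Z'LYTE format at Km app ATP, and CAMK1 in Adapta format with ATP listed at 10.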

T1 sequence (Q00536 whole entry): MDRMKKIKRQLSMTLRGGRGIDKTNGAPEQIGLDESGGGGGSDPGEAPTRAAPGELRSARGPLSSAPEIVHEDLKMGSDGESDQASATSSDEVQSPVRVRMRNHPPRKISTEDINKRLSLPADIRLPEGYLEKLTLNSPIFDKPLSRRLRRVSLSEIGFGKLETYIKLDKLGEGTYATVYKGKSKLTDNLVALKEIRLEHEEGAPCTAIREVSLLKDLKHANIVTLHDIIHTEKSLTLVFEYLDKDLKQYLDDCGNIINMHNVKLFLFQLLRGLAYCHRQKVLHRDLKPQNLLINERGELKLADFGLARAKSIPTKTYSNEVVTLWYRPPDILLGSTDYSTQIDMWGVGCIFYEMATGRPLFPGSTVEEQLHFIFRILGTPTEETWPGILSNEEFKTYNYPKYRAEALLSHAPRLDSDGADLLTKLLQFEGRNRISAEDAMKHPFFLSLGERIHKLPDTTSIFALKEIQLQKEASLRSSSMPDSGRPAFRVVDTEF
T1 sequence (Q8ND76 whole entry partner): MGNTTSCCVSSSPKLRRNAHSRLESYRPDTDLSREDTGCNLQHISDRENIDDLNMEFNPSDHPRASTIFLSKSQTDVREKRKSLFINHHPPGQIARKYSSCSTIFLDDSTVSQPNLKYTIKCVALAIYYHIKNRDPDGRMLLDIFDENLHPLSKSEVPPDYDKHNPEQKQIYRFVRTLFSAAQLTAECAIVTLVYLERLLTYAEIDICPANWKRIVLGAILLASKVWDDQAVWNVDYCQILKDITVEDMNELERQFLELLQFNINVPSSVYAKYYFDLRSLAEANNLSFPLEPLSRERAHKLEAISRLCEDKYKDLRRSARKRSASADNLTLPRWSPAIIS

SMILES: CN(C(=O)CN1CCOCC1)c1ccc2sc3c(-c4cccc5c(=O)cc(N6CC7CCC(C6)O7)oc45)cccc3c2c1 [NU5455]
- inhibition at 1 µM: 7%
